In patent publication US20120010075A1 (priority 2009, published 2012):
Like-named read-outs stand apart in the source and are kept apart here.

Legend:
[1] = test system: Septoria tritici isolate USA-184; assay: In vitro fungitoxicity of hydrazones with and without copper towards Septoria tritici (Example 30, Table 5); type: cell-based; settings: Zymoseptoria tritici, 0.05 μg/mL
[2] = test system: Ustilago maydis; assay: In vitro fungitoxicity of hydrazones with and without copper towards Ustilago maydis (Example 29, Table 4); type: cell-based; settings: 1 μg/mL, 48 h
[3] = test system: Phytophthora infestans; type: in vivo, Phytophthora infestans on tomato; settings: hydrazone 50 ppm + 50 μM CuCl2.2H2O, applied 24 h before inoculation, assessed 7 days after inoculation, tomato

O=C(N/N=C/c1cc(Cl)cc(Cl)c1O)c1ccccc1 [Example 16]
inhibition at 0.05 µg/mL ([1]; Colby formula, CuCl2, read-out: % Inhibition Plus copper Predicted): 35.8% | inhibition at 0.05 µg/mL ([1]; copper-minus medium, 90 h, read-out: % Inhibition Minus copper Observed): 35.8% | inhibition at 0.05 µg/mL ([1]; copper-plus medium CuCl2, 90 h, read-out: % Inhibition Plus copper Observed): 93.6% | % Inhn. Plus copper Observed ([2]; copper-plus medium (CuCl2, 10 μM)): 80.0% | inhibition of growth at 1 µg/mL ([2]; Mycosarcoma maydis, copper-minus medium, read-out: % Inhn. Minus copper Observed): 0% | TLB % Control [3]: 94.0%
